Measurements taken from patent US7307171B2, “Materials and methods for inhibiting fouling of surfaces exposed to aquatic environments” (priority 2003, dated 2007).
Like-named read-outs stand apart in the source and are kept apart here.

Tests used:
[1] = test system: crayfish Procambarus clarkii; conditions: cited from earlier work; for Crayfish Paralysis PD50: Table 2 footnote 1: published previously (Kem, Soti 2001)
[2] = test system: crayfish Procambarus clarkii; conditions: for crayfish paralytic activity (in words): crayfish paralysis assay; for Crayfish Acute Paralytic Dose PD50: Table 1, no footnote, P. clarkii, injected into haemocoele, paralysis at 15 min; for fold less toxic/paralytic than 2,3′-BP in crayfish: injected into crayfish, compared with 2,3′-BP; for Crayfish Paralysis PD50: Table 2, no footnote, paralysis 15 min after injection; for Crayfish Paralysis Rel. Pot: relative to 2,3′-BP = 100
Description: Each alkaloid, dissolved in 0.9% sodium chloride containing 10 mM Tris buffer (pH 7.4), was injected into the haemocoele which surrounds the heart. Dose per unit weight was kept constant by injecting a variable volume, 0.10 ml per 10 g fresh weight. Paralysis was measured 15 minutes after injection by measuring the animal's ability, after being placed on its back, to right itself within a 2-minute period. Although the convulsive paralytic effect of the bipyridyls reached a peak about 2-minutes after injection, paralysis could be more conveniently measured 15 minutes after injection. Generally, the same number (10-20) of crayfish were injected at each dose, and the dose interval was kept constant. Before the assay, crayfish were tested to ascertain that they could right themselves within a one minute period.
Animals initially develop tremors, then flex their legs, repeatedly flip their tails, then fall on their side in a tonic convulsion within 2-5 minutes after injection. Recovery is appreciable within 15 minutes, the time selected as most convenient for evaluating groups of 5 animals rapidly injected one after another.

[3] = test system: barnacle (Balanus amphitrite) cyprid larvae; experiment: Barnacle cyprid larval 24 hour settlement inhibition assay; format: in vivo; conditions: for anti-settlement activity (in words): barnacle larval settlement; for IC50: cyprid larvae, 24 hr exposure, probit analysis, interval in parentheses; for Inhibition Pot/Paralytic Pot: ratio of relative settlement inhibition potency to relative crayfish paralytic potency; for Barnacle Larvae Settlement Rel. Pot: relative to 2,3′-BP = 100; for Barnacle Larvae Settlement % Inhib: single concentration, three separate experiments, spread in parentheses
Excerpt: (§1) While the cypris larval stage was used in settlement tests, the second naupliar larval stage was used in toxicity tests. Great care was taken to ensure that the free bases completely dissolved in aged sea water solutions previously filtered to remove particles >than 100 kDa. This was accomplished by diluting (by immediate and thorough vortexing) a 3×10^−2 Molar solution of the free base in methanol at least 1,000-fold into the filtered sea water. Diluted aqueous solutions of the compounds were not refrigerated and were used within an hour of preparation.

[4] = test system: barnacle second naupliar larval stage; experiment: Barnacle naupliar larval 24 hour toxicity (mortality) assay; format: in vivo, Balanus amphitrite; conditions: 24 hr mortality, interval in parentheses, read-out: Barnacle Larvae Lethal Median Conc. LC50
Excerpt: as §1
(§2) All six possible unsubstituted bipyridyls were also tested.

[5] = as above; format: in vivo, Balanus amphitrite; conditions: Balanus amphitrite, in vivo, other: larvae exposed in sea water solution of the compound; second naupliar stage, 24 hr mortality; interval in parentheses; read-out: Barnacle Larvae Lethal Median Conc. LC50
Excerpt: as §1, §2

[6] = Table 1 footnote 2: published previously, P. clarkii from Louisiana (Kem, Soti 2001)
[7] = Table 1 footnote 1: published previously, P. clarkii from California (Kem 1976)

Compound | anti-settlement activity (in words) [3] | IC50 ([3]; Amphibalanus amphitrite) [µM] | LC50 at 24 h [5] [µM] | Crayfish Paralysis Rel. Pot [2] | Inhibition Pot/Paralytic Pot [3] | Barnacle Larvae Settlement Rel. Pot [3] | Barnacle Larvae Settlement % Inhib [3] | other results
1-methyl-2,3′-BP [1-Methyl-2,3′BP, reference compound] | low anti-settlement activity |  |  |  |  |  |  | Crayfish Acute Paralytic Dose PD50 [1, 6]: >800^2 μg; crayfish paralytic activity (in words) [2]: very low paralytic activity; IC50 [3]: > 100 µM; LC50 [4]: > 100 µM
2-(thienyl)-pyridine [reference compound] | inactivity |  |  |  |  |  |  | Crayfish Acute Paralytic Dose PD50 [1, 6]: 650^2 μg; IC50 [3]: > 100 µM; LC50 [4]: > 100 µM
c1cnc2c(c1)ccc1ncccc12 [1,7-phenanthroline, reference compound] | inactive at a 10-fold higher concentration | > 50 | > 50 |  |  |  |  | Crayfish Acute Paralytic Dose PD50 [1, 6]: >30^2 μg; crayfish paralytic activity (in words) [2]: low activity
c1cnc2c(c1)ccc1ccncc12 [1,9-phenanthroline] | almost as active as 2,3′-BP | 2 | > 50 |  |  |  |  | Crayfish Acute Paralytic Dose PD50 [1, 6]: 3.0^2 μg
c1ccc(-c2ccccn2)nc1 [2,2′-BP, 2,2′-bipyridyl] |  | 7 | 4.4 |  |  |  |  | Crayfish Acute Paralytic Dose PD50 [2]: >100 µg; fold less toxic/paralytic than 2,3′-BP in crayfish [2]: at least 50 fold
c1ccc(-c2cccnc2)nc1 [2,3′-BP, 2,3′-Bipyridyl] |  | 4.1 | 1.9 | 100 | 1.0 | 100 | 54 (11) % | Crayfish Acute Paralytic Dose PD50 [1, 7]: 0.88^1 μg; Crayfish Acute Paralytic Dose PD50 [1, 6]: 1.8^2 μg; pKa (physchem): 4.4; Crayfish Paralysis PD50 [2]: 1.8 µg
c1ccc(-c2ccncc2)nc1 [2,4′-BP, 2,4′-bipyridyl] |  | > 100 | > 50 |  |  |  |  | Crayfish Acute Paralytic Dose PD50 [2]: >20 µg
c1cnc(-c2cccnc2)nc1 [2-(3-pyridyl)-pyrimidine] |  | > 50 | > 50 |  |  |  |  | Crayfish Acute Paralytic Dose PD50 [1, 6]: 2.6^2 μg
Cc1ncccc1-c1ccccn1 [2′-Me2,3′-BP, 2′-Me2,3′-bipyridyl] |  |  |  | 1 | <0.05 | 0 | 0 (33) % | Crayfish Paralysis PD50 [1]: 210^1 μg
c1cncc(-c2cccnc2)c1 [3,3′-BP, 3,3′-bipyridyl] |  | > 100 | 10 |  |  |  |  | Crayfish Acute Paralytic Dose PD50 [2]: 17 µg
c1cncc(-c2ccncc2)c1 [3,4′-BP, 3,4′-bipyidyl] |  |  |  |  |  |  |  | Crayfish Acute Paralytic Dose PD50 [2]: 61 µg; IC50 [3]: > 100 µM; LC50 [4]: > 20 µM
Clc1cccnc1-c1cccnc1 [3-Chloro-2,3′-BP, reference compound] | inability of the 3-chloro-2,3′-BP to inhibit settlement at 100 μM |  |  |  |  |  |  | IC50 [3]: > 100 µM; LC50 [4]: > 50 µM
Cc1cccnc1-c1cccnc1 [3-Me2,3′-BP, 3-Methyl-2,3′-bipyridyl] |  |  |  | 30 | 2.1 | 63 | 34 (13) % | Crayfish Paralysis PD50 [1]: 59^1 μg
c1cc(-c2ccncc2)ccn1 [4,4′-BP, 4,4′-bipyridyl] |  | > 100 |  |  |  |  |  | 
Cc1ccnc(-c2cccnc2)c1 [4-Me2,3′-BP, 4-Me2,3′-bipyridyl] |  |  |  | 50 | 3.1 | 154 | 83 (4) % | Crayfish Paralysis PD50 [2]: 3.6 µg
Cc1ccncc1-c1ccccn1 [4′-Me2,3′-BP, 4′-Methyl-2,3′-bipyridyl] |  |  |  | 3 | 56 | 167 | 90 (10) % | Crayfish Paralysis PD50 [1]: 69^1 μg; fold less toxic/paralytic than 2,3′-BP in crayfish [2]: 33 fold; crayfish paralytic activity as % of 2,3′-BP ([2]; relative to 2,3′-BP): 3%
Cc1ccc(-c2cccnc2)nc1 [5-Me2,3′-BP, 5-methyl-2,3′-bipyridyl] |  |  |  | 184 | 0.96 | 176 | 95 (5) % | Crayfish Paralysis PD50 [2]: 0.98 µg
Cc1cncc(-c2ccccn2)c1 [5′-Me2,3′-BP, 5′-Methyl-2,3′-bipyridyl] |  |  |  | 55 | 1.8 | 100 | 54 (28) % | Crayfish Paralysis PD50 [2]: 3.3 µg
Cc1cccc(-c2cccnc2)n1 [6-Me2,3′-BP, 6-methyl-2,3′-bipyridyl] |  |  |  | 112 | 0.27 | 30 | 16 (16) % | Crayfish Paralysis PD50 [2]: 1.6 µg
Cc1ccc(-c2ccccn2)cn1 [6′-Me2,3′-BP, 6′-Methyl-2,3′-bipyridyl] |  |  |  | 15 | 3.7 | 56 | 30 (16) % | Crayfish Paralysis PD50 [2]: 12 µg
c1cncc(C2=NCCCC2)c1 [Anabaseine, anabaseine] |  | 1.2 | 2 |  |  |  |  | Crayfish Acute Paralytic Dose PD50 [1, 7]: 3.6^1 μg; crayfish paralytic activity (in words) [2]: slightly less paralytic than 2,3′-BP; fold less toxic/paralytic than 2,3′-BP in crayfish [2]: approximately 4 fold
c1cncc([C@@H]2CCCCN2)c1 [Anabasine] |  | 3 |  |  |  |  |  | Crayfish Acute Paralytic Dose PD50 [2]: 3.9 µg
c1cncc(-c2ccnc(-c3cccnc3)c2)c1 [Nicotelline] | displayed an activity similar to nemertelline |  |  |  |  |  |  | 
c1cncc(C2=NCCCN2)c1 [PTHP, 2-(3-pyridyl)-3,4,5,6-tetrahydropyrimidine, reference compound] | relative inactivity | > 100 | > 100 |  |  |  |  | Crayfish Acute Paralytic Dose PD50 [1, 6]: 81^2 μg; crayfish paralytic activity (in words) [2]: very low paralytic activity
(S)-anabaseine | inhibited settlement |  |  |  |  |  |  | 
nemertelline |  |  |  |  |  |  |  | Crayfish Acute Paralytic Dose PD50 [2]: >120 µg; IC50 [3]: 3.2 µM
